Assays:
Type in all cases: in vivo
[1] = test system: Digitaria sanguinalis (DIGSA); assay: Herbicidal pre-emergence action (A), 1280 g/ha; conditions: visual grading after ca. 3 weeks vs untreated controls, 100% = plants have died off, 0% = as control plants
Description: (§1) ABUTH: Abutilon theophrasti AGSTE: Agrostis tenuis ALOMY: Alopecurus myosuroides AMARE Amaranthus retroflexus DIGSA: Digitaria sanguinalis ECHCG: Echinochloa crus-galli KCHSC: Kochia scoparia LOLRI: Lolium rigidum MATIN: Matricaria inodora POAAN: Poa annua POLCO: Polygonum convolvulus SETVI: Setaria viridis STEME: Stellaria media VERPE: Veronica persica VIOTR: Viola tricolor
(§2) Seeds of mono- and dicotyledonous weed plants were sown in plastic pots (double sowings with one species of mono- and one species of dicotyledonous weed plants per pot), in sandy loam, and covered with soil. The compounds according to the invention, formulated in the form of wettable powders (WP) or as emulsifiable concentrates (EC), were applied to the surface of the covering soil as aqueous suspension or emulsion, with the addition of 0.5% of an additive, at an application rate of 600 l of water per hectare (converted). Following treatment, the pots were placed in a greenhouse and kept under optimum growth conditions for the test plants. The visual grading of the damage to the test plants was carried out after ca. 3 weeks in comparison to untreated controls (herbicidal effect in percent (%): 100% effect=plants have died off, 0% effect=as control plants).
(§3) Tables A1 to A12, below, show the effects of selected compounds of the general formula (I) according to table 1 on various harmful plants and an application rate corresponding to 1280 g/ha obtained by the experimental procedure mentioned above.

[2] = test system: Kochia scoparia (KCHSC; Bassia scoparia); assay: Herbicidal pre-emergence action (A), 1280 g/ha; conditions: visual grading after ca. 3 weeks vs untreated controls
Description: as §1, §2, §3

Poa annua (POAAN) [3] = assay: Herbicidal pre-emergence action (A), 1280 g/ha; conditions: visual grading after ca. 3 weeks vs untreated controls, 100% = plants have died off, 0% = as control plants
Description: as §1, §2, §3

Stellaria media (STEME) [4] = assay: Herbicidal pre-emergence action (A), 1280 g/ha; conditions: visual grading after ca. 3 weeks vs untreated controls
Description: as §1, §2, §3

[5] = test system: Abutilon theophrasti (ABUTH); assay: Herbicidal post-emergence action (B), 1280 g/ha; conditions: rated visually after about 3 weeks vs untreated controls
Description: as §1
(§4) Seeds of mono- and dicotyledonous weed plants were placed in plastic pots in sandy loam soil (doubly sown with in each case one species of mono- or dicotyledonous weed plants per pot), covered with soil and cultivated in a greenhouse under controlled growth conditions. 2 to 3 weeks after sowing, the test plants were treated at the one-leaf stage. The compounds of the invention, formulated in the form of wettable powders (WP) or as emulsion concentrates (EC), were applied onto the green parts of the plants as aqueous suspension or emulsion with addition of 0.5% additive at a water application rate of 600 liters per hectare (converted). After the test plants had been kept in the greenhouse under optimum growth conditions for about 3 weeks, the activity of the preparations was rated visually in comparison to untreated controls. For example, 100% activity=the plants have died, 0% activity=like control plants.
(§5) Tables B1 to B12, below, show the effects of selected compounds of the general formula (I) according to table 1 on various harmful plants and an application rate corresponding to 1280 g/ha obtained by the experimental procedure mentioned above.

[6] = test system: Alopecurus myosuroides (ALOMY); assay: Herbicidal post-emergence action (B), 1280 g/ha; conditions: rated visually after about 3 weeks vs untreated controls
Description: as §1, §4, §5

[7] = test system: Kochia scoparia (KCHSC; Bassia scoparia); assay: Herbicidal post-emergence action (B), 1280 g/ha
Description: as §1, §4, §5

Stellaria media (STEME) [8] = assay: Herbicidal post-emergence action (B), 1280 g/ha
Description: as §1, §4, §5

[9] = test system: Amaranthus retroflexus (AMARE); assay: Herbicidal post-emergence action (B), 1280 g/ha; conditions: rated visually after about 3 weeks vs untreated controls
Description: as §1, §4, §5

Veronica persica (VERPE) [10] = assay: Herbicidal post-emergence action (B), 1280 g/ha
Description: as §1, §4, §5

[11] = test system: Echinochloa crus-galli (ECHCG); assay: Herbicidal pre-emergence action (A), 1280 g/ha; conditions: visual grading after ca. 3 weeks vs untreated controls, 100% = plants have died off, 0% = as control plants
Description: as §1, §2, §3

Lolium rigidum (LOLRI) = assay: Herbicidal pre-emergence action (A), 1280 g/ha; conditions: visual grading after ca. 3 weeks vs untreated controls, 100% = plants have died off, 0% = as control plants
Description: as §1, §2, §3

Setaria viridis (SETVI) = assay: Herbicidal pre-emergence action (A), 1280 g/ha; conditions: visual grading after ca. 3 weeks vs untreated controls
Description: as §1, §2, §3

[12] = test system: Echinochloa crus-galli (ECHCG); assay: Herbicidal post-emergence action (B), 1280 g/ha; conditions: rated visually after about 3 weeks vs untreated controls
Description: as §1, §4, §5

Poa annua (POAAN) [13] = assay: Herbicidal post-emergence action (B), 1280 g/ha; conditions: rated visually after about 3 weeks vs untreated controls
Description: as §1, §4, §5

[14] = test system: Amaranthus retroflexus (AMARE); assay: Herbicidal pre-emergence action (A), 1280 g/ha; conditions: visual grading after ca. 3 weeks vs untreated controls
Description: as §1, §2, §3

Veronica persica (VERPE) [15] = assay: Herbicidal pre-emergence action (A), 1280 g/ha; conditions: visual grading after ca. 3 weeks vs untreated controls
Description: as §1, §2, §3

[16] = test system: Alopecurus myosuroides (ALOMY); assay: Herbicidal pre-emergence action (A), 1280 g/ha; conditions: visual grading after ca. 3 weeks vs untreated controls, 100% = plants have died off, 0% = as control plants
Description: as §1, §2, §3

[17] = test system: Matricaria inodora (MATIN); assay: Herbicidal pre-emergence action (A), 1280 g/ha; conditions: visual grading after ca. 3 weeks vs untreated controls
Description: as §1, §2, §3

Structure (SMILES) | DIGSA, herbicidal effect in percent (%) [1] [%] | herbicidal effect KCHSC [2] [%] | POAAN, herbicidal effect in percent (%) (Poa annua (POAAN) [3]) | herbicidal effect STEME (Stellaria media (STEME) [4]) [%] | herbicidal activity ABUTH [5] [%] | herbicidal activity ALOMY [6] [%] | herbicidal effect KCHSC [7] [%] | herbicidal effect STEME (Stellaria media (STEME) [8]) [%] | herbicidal activity AMARE [9] [%] | herbicidal effect VERPE (Veronica persica (VERPE) [10]) [%] | ECHCG, herbicidal effect in percent (%) [11] [%] | LOLRI, herbicidal effect in percent (%) (Lolium rigidum (LOLRI)) | herbicidal effect SETVI (Setaria viridis (SETVI)) [%] | herbicidal activity ECHCG [12] [%] | herbicidal activity POAAN (Poa annua (POAAN) [13]) [%] | herbicidal effect AMARE [14] [%] | herbicidal effect VERPE (Veronica persica (VERPE) [15]) [%] | ALOMY, herbicidal effect in percent (%) [16] [%] | herbicidal effect MATIN [17] [%]
Fc1ccccc1-c1nc2nc(Cl)sc2cc1Br [Example I-053, 6-bromo-2-chloro-5-(2-fluorophenyl)thiazolo[4,5-b]pyridine] | 100 | 90 | 100 | 100 | 90 | 100 | 90 | 100 |  |  |  |  |  |  |  |  |  |  | 
COC(=O)c1nc2nc(-c3ccccc3F)c(Br)cc2s1 [Example I-054, methyl 6-bromo-5-(2-fluorophenyl)thiazolo[4,5-b]pyridine-2-carboxylate] |  |  | 100 |  | 90 |  | 90 |  | 100 | 90 |  |  |  |  |  |  |  |  | 
CCOc1nc2nc(-c3ccccc3C)c(CC)cc2s1 [Example I-055] |  | 100 | 100 | 90 |  |  |  |  |  |  | 100 | 90 | 100 | 90 | 100 |  |  |  | 
CCc1cc2sc(S(C)(=O)=O)nc2nc1-c1ccccc1F [Example I-059] | 100 | 90 | 100 |  | 100 |  | 90 |  | 100 | 100 |  |  | 100 |  |  |  |  |  | 
N#Cc1nc2nc(-c3ccccc3F)c(Br)cc2s1 [Example I-070, 6-bromo-5-(2-fluorophenyl)thiazolo[4,5-b]pyridine-2-carbonitrile] |  |  |  |  | 90 |  |  |  | 100 |  |  |  | 100 |  |  | 100 |  |  | 
N#CCc1nc2nc(-c3ccccc3F)c(Br)cc2s1 [Example I-071] |  | 90 | 100 | 90 |  | 90 | 90 | 90 | 90 | 90 | 100 | 100 | 90 |  |  | 90 | 90 |  | 
Cc1ccccc1-c1nc2ncsc2cc1Cl [Example I-083] | 100 |  | 100 | 100 |  |  | 90 | 100 | 100 | 90 | 100 | 100 | 100 |  |  |  | 100 | 100 | 
CCOC(=O)C(C#N)c1nc2nc(-c3ccccc3F)c(Br)cc2s1 (centres unmarked) [Example I-086] |  |  | 90 |  |  | 100 | 90 |  | 100 |  |  |  |  |  |  |  |  | 90 | 
Cc1cc2sc([S+](C)[O-])nc2nc1-c1ccccc1F (centres unmarked) [Example I-104] | 100 | 100 | 100 | 90 |  |  | 100 |  | 90 | 100 |  |  | 100 |  |  | 90 | 90 |  | 90
Cc1cc2scnc2nc1-c1cccnc1C [Example I-130] |  |  | 100 |  | 90 |  | 90 |  |  | 90 |  |  | 100 |  |  | 90 |  |  | 
Cc1sccc1-c1ccc2scnc2n1 [Example I-133] |  | 90 | 90 | 90 | 90 |  |  |  | 90 |  | 100 | 100 | 100 | 90 | 100 | 90 | 90 | 100 | 
Cc1cscc1-c1nc2ncsc2cc1Br [Example I-141] |  |  | 100 | 90 |  |  | 90 |  | 90 | 90 | 100 |  | 100 | 90 |  | 90 | 90 | 100 | 90
Cc1cc2sc(S)nc2nc1-c1ccccc1F [Example I-155] | 90 | 90 | 100 |  |  |  | 100 |  | 100 | 90 | 100 |  | 100 |  |  | 90 | 90 |  | 
Cc1cc2sc(S)nc2nc1-c1ccccc1Cl [Example I-169] |  | 90 | 100 |  | 100 |  | 90 |  | 90 | 90 | 90 |  | 90 |  |  | 90 |  |  | 
Cc1c(Br)c(-c2ccccc2F)nc2ncsc12 [Example I-186] |  |  |  |  | 90 |  |  | 90 | 100 | 90 |  |  |  |  |  |  |  |  | 
Cc1cc(C)c(-c2nc3ncsc3cc2C)s1 [Example I-195] |  | 90 | 100 | 90 |  | 100 | 90 |  |  |  | 100 | 100 | 100 |  | 100 |  | 90 |  | 90
Cc1cc2scnc2nc1-c1sc(Br)cc1C [Example I-198] |  |  | 100 | 90 |  | 90 | 90 |  |  | 100 | 100 | 90 | 100 |  |  |  | 90 | 100 | 

Reference: US20230151025A1, “SUBSTITUTED THIAZOLOPYRIDINES, SALTS THEREOF AND THEIR USE AS HERBICIDALLY ACTIVE SUBSTANCES” (Bayer Aktiengesellschaft, priority 2020, published 2023)
